Experimental findings from PMC12693167, “Design, Synthesis and Anticancer Activity of 6-Substituted-1-(3,4,5-trimethoxyphenyl)-1H-indole Against Tubulin Polymerisation” (Molecules, 2025) are described below.

The term IC50 denotes the point on the concentration scale where inhibition reaches its midpoint. As usually defined, the Kd is a measure of binding affinity in units of concentration.

Bounds are passed on as bounds.

One experiment concerns A375 cells. The experiment is described as follows: CCK-8 antiproliferative assay, A375. Conditions: Homo sapiens, A-375; cell viability (CCK-8), 48 h. It is filed as cell-based. The protocol: (§1) To evaluate the anticancer potential of the synthesized compounds, a panel of six human and murine cancer cell lines representing different tissue origins was selected, including MCF-7 (human breast adenocarcinoma), MDA-MB-231 (human triple-negative breast cancer), A549 (human non-small cell lung cancer), HeLa (human cervical cancer), A375 (human melanoma), and B16-F10 (murine melanoma) (Table 2). […] DMSO was used as the vehicle control, and all experiments were performed in triplicate to ensure reproducibility.
(§2) Human breast cancer cells (MCF-7), human lung cancer cells (A549), human cervical cancer cells (HeLa), human triple-negative breast cancer cells (MDA-MB-231), and human malignant melanoma cells (A375) were cultured in DMEM. Mouse melanoma cells (B16F10) were maintained in RPMI-1640 medium. All media were supplemented with 10% fetal bovine serum and 1% penicillin-streptomycin (Life Technologies, Carlsbad, CA, USA) and maintained at 37 °C in a humidified atmosphere with 5% CO2.
(§3) The cytotoxicity of the test compounds was evaluated against MCF-7, A549, HeLa, MDA-MB-231, A375, and B16F10 using the CCK-8 assay. Cells were seeded into 96-well plates at a density of 5000 cells/well. After removing the medium, 100 μL of medium with 0.1% DMSO containing test compounds at different concentrations was added to each well and incubated at 37 °C for another 48 h. The CCK-8 solution was added and incubated for another 1 h, and then, the absorbance was detected with a microplate reader at a wavelength of 450 nm. The IC50 values were calculated by nonlinear regression analysis using GraphPad Prism 8.0.2. All the experiments were repeated at least three times.
Compound `COc1cc(-n2ccc3ccc(-c4ccc(SC)cc4)cc32)cc(OC)c1OC` [3j, 6-(4-(methylthio)phenyl)-1-(3,4,5-trimethoxyphenyl)-1H-indole] registered an IC50 of more than 100 µM.
On the same count and under the same terms, to `COc1cc(-n2ccc3ccc(-c4ccccc4C(C)C)cc32)cc(OC)c1OC` [3f, 6-(2-isopropylphenyl)-1-(3,4,5-trimethoxyphenyl)-1H-indole] belongs 21.1 ± 1.17 µM; to `COc1cc(-n2ccc3ccc(-c4ccc(C(C)C)cc4)cc32)cc(OC)c1OC` [3k, 6-(4-isopropylphenyl)-1-(3,4,5-trimethoxyphenyl)-1H-indole], more than 100 µM.
In the case of `COc1cc(-n2ccc3ccc(-c4cccc(OC(F)(F)F)c4)cc32)cc(OC)c1OC` [3h, 6-(3-(trifluoromethoxy)phenyl)-1-(3,4,5-trimethoxyphenyl)-1H-indole], the IC50 was more than 100 µM.

A further experiment has as its system A549 cells. Briefly: CCK-8 antiproliferative assay, A549. Conditions: Homo sapiens, cell viability (CCK-8), 48 h. It is filed as cell-based. The protocol:
as §1, §2, §3
A general note: Formazan colour is commonly taken as a measure of viable cells.
On to `COc1cc(-n2ccc3ccc(-c4ccc(SC)cc4)cc32)cc(OC)c1OC` [3j, 6-(4-(methylthio)phenyl)-1-(3,4,5-trimethoxyphenyl)-1H-indole], for which the IC50 was more than 100 µM.
The same measure, in the same setting: to `COc1cc(-n2ccc3ccc(-c4ccccc4C(C)C)cc32)cc(OC)c1OC` [3f, 6-(2-isopropylphenyl)-1-(3,4,5-trimethoxyphenyl)-1H-indole] belongs 87.4 ± 3.45 µM; to `COc1cc(-n2ccc3ccc(-c4ccc(C(C)C)cc4)cc32)cc(OC)c1OC` [3k, 6-(4-isopropylphenyl)-1-(3,4,5-trimethoxyphenyl)-1H-indole], more than 100 µM; to `COc1cc(-n2ccc3ccc(-c4cccc(OC(F)(F)F)c4)cc32)cc(OC)c1OC` [3h, 6-(3-(trifluoromethoxy)phenyl)-1-(3,4,5-trimethoxyphenyl)-1H-indole], more than 100 µM.

The test system of a further experiment is MCF-7 cells. The experiment is described as follows: CCK-8 antiproliferative assay, MCF-7. In kind it is cell-based. Conditions: Homo sapiens, MCF7; cell viability (CCK-8), 48 h. The protocol:
as §1, §2, §3
Regarding `COc1cc(-n2ccc3ccc(-c4ccc(SC)cc4)cc32)cc(OC)c1OC` [3j, 6-(4-(methylthio)phenyl)-1-(3,4,5-trimethoxyphenyl)-1H-indole], the IC50 was more than 100 µM.
Still for that read-out and setting: to `COc1cc(-n2ccc3ccc(-c4ccccc4C(C)C)cc32)cc(OC)c1OC` [3f, 6-(2-isopropylphenyl)-1-(3,4,5-trimethoxyphenyl)-1H-indole] belongs 17.4 ± 0.35 µM; to `COc1cc(-n2ccc3ccc(-c4ccc(C(C)C)cc4)cc32)cc(OC)c1OC` [3k, 6-(4-isopropylphenyl)-1-(3,4,5-trimethoxyphenyl)-1H-indole], more than 100 µM.
Same read-out and setting: with `COc1cc(-n2ccc3ccc(-c4cccc(OC(F)(F)F)c4)cc32)cc(OC)c1OC` [3h, 6-(3-(trifluoromethoxy)phenyl)-1-(3,4,5-trimethoxyphenyl)-1H-indole] the figure was more than 100 µM.

The subject of a further experiment is HeLa cells. The experiment is described as follows: CCK-8 antiproliferative assay, HeLa. It is filed as cell-based. Conditions: Homo sapiens, cell viability (CCK-8), 48 h. The protocol:
as §1, §2, §3
As to `COc1cc(-n2ccc3ccc(-c4ccc(SC)cc4)cc32)cc(OC)c1OC` [3j, 6-(4-(methylthio)phenyl)-1-(3,4,5-trimethoxyphenyl)-1H-indole], the 50% inhibitory concentration (IC50) was more than 100 µM.
Consider `COc1cc(-n2ccc3ccc(-c4ccccc4C(C)C)cc32)cc(OC)c1OC` [3f, 6-(2-isopropylphenyl)-1-(3,4,5-trimethoxyphenyl)-1H-indole], for which the IC50 stood at 41.8 ± 1.11 µM.
Still for that read-out and setting: with `COc1cc(-n2ccc3ccc(-c4ccc(C(C)C)cc4)cc32)cc(OC)c1OC` [3k, 6-(4-isopropylphenyl)-1-(3,4,5-trimethoxyphenyl)-1H-indole] the figure was more than 100 µM; with `COc1cc(-n2ccc3ccc(-c4cccc(OC(F)(F)F)c4)cc32)cc(OC)c1OC` [3h, 6-(3-(trifluoromethoxy)phenyl)-1-(3,4,5-trimethoxyphenyl)-1H-indole], more than 100 µM.

In the next experiment the test system is MDA-MB-231 cells. Briefly: CCK-8 antiproliferative assay, MDA-MB-231. It is filed as cell-based. Conditions: Homo sapiens, cell viability (CCK-8), 48 h. The protocol: as §1, §2, §3
As for `COc1cc(-n2ccc3ccc(-c4ccc(SC)cc4)cc32)cc(OC)c1OC` [3j, 6-(4-(methylthio)phenyl)-1-(3,4,5-trimethoxyphenyl)-1H-indole], the IC50 was more than 100 µM.
Same read-out and setting: to `COc1cc(-n2ccc3ccc(-c4ccccc4C(C)C)cc32)cc(OC)c1OC` [3f, 6-(2-isopropylphenyl)-1-(3,4,5-trimethoxyphenyl)-1H-indole] belongs 21.37 ± 0.12 µM; to `COc1cc(-n2ccc3ccc(-c4ccc(C(C)C)cc4)cc32)cc(OC)c1OC` [3k, 6-(4-isopropylphenyl)-1-(3,4,5-trimethoxyphenyl)-1H-indole], more than 100 µM.
Consider `COc1cc(-n2ccc3ccc(-c4cccc(OC(F)(F)F)c4)cc32)cc(OC)c1OC` [3h, 6-(3-(trifluoromethoxy)phenyl)-1-(3,4,5-trimethoxyphenyl)-1H-indole], for which the concentration for half-maximal inhibition (IC50) was more than 100 µM.

In the next experiment the target is T1, purified porcine brain tubulin (Sus scrofa, UniProt P02554).
T1 construct: purified porcine brain tubulin; from tissue; host or cells: porcine brain
T1 sequence (P02554 whole entry): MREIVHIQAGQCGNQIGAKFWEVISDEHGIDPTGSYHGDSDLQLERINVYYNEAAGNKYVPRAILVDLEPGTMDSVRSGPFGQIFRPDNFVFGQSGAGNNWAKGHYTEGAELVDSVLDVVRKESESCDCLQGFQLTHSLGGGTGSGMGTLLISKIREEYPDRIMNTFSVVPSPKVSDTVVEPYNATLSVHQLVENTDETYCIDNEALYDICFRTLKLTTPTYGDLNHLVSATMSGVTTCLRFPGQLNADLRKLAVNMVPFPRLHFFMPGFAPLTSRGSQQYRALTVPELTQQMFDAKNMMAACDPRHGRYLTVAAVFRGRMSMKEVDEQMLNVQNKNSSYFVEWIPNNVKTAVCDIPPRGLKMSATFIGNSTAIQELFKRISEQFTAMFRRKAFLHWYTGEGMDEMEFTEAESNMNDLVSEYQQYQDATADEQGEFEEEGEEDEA
T1 sequence (P02550 whole entry partner): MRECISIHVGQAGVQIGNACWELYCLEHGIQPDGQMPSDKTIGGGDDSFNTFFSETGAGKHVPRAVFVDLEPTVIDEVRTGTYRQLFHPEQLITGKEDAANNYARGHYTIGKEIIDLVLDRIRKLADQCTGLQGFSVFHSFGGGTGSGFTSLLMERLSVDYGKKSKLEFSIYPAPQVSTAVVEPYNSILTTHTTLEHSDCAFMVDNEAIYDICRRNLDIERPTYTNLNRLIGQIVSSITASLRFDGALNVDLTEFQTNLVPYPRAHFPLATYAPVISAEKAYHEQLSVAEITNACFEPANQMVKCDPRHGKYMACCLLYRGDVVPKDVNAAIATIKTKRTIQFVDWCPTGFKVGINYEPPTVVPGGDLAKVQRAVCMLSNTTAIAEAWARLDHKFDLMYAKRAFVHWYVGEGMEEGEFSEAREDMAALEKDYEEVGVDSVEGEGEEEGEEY
The experiment is described as follows: Biolayer interferometry (BLI) binding to tubulin. Conditions: immobilized tubulin, 1:1 binding model, mean ± SD, triplicate. The protocol: To detect the direct interaction between the synthesized compounds and tubulin, biolayer interferometry (BLI) experiments were performed using purified porcine brain tubulin immobilized on Super Streptavidin (SSA) biosensor [30]. […] Association and dissociation kinetics were monitored in real time, and equilibrium dissociation constants (KD) were determined by global fitting of the sensorgrams to a 1:1 binding model. All measurements were conducted in triplicate, and results are reported as mean ± SD.
BLI assays were performed on an Octet RED96 instrument (FortéBio, Pall Life Sciences, Menlo Park, CA, USA) at 25 °C in PBS buffer supplemented with 0.02% (v/v) Tween-20 as the running buffer. Biotinylated tubulin proteins (3 μg/mL) were immobilized onto Super Streptavidin (SSA) biosensors. Association and dissociation were monitored for 60 s each. […] Reference subtraction was performed using sensors incubated in running buffer without protein loading to correct for baseline drift. Data were analyzed using Octet Data Analysis software (version 9.0), and equilibrium dissociation constants (KD) were determined by fitting the curves to a 1:1 binding model. All measurements were performed in triplicate, and results are reported as mean ± SD.
BLI assays were performed on an Octet RED96 instrument (FortéBio, Pall Life Sciences) at 25 °C in PBS buffer supplemented with 0.02% (v/v) Tween-20 as the running buffer. Biotinylated tubulin proteins (3 μg/mL) were immobilized onto Super Streptavidin (SSA) biosensors. Association and dissociation were monitored for 60 s […]
Reference subtraction was performed using sensors incubated in running buffer without protein loading to correct for baseline drift. Data were analyzed using Octet Data Analysis software (version 9.0), and equilibrium dissociation constants (KD) were determined by fitting the curves to a 1:1 binding model. All measurements were performed in triplicate, and results are reported as mean ± SD.
(BLI is a label-free optical method that tracks binding on a fibre tip over time.)
As to `COc1cc(-n2ccc3ccc(-c4ccc(SC)cc4)cc32)cc(OC)c1OC` [3j, 6-(4-(methylthio)phenyl)-1-(3,4,5-trimethoxyphenyl)-1H-indole], the KD result is listed as “undetectable binding” and the dissociation constant (Kd) is more than 200 µM.
`COc1cc(-n2ccc3ccc(-c4ccccc4C(C)C)cc32)cc(OC)c1OC` [3f, 6-(2-isopropylphenyl)-1-(3,4,5-trimethoxyphenyl)-1H-indole] registered a Kd of 47 ± 5.62 µM.
For the compound `COc1cc(-n2ccc3ccc(-c4ccc(C(C)C)cc4)cc32)cc(OC)c1OC` [3k, 6-(4-isopropylphenyl)-1-(3,4,5-trimethoxyphenyl)-1H-indole], the KD entry is listed as “undetectable binding” and the dissociation constant Kd was more than 200 µM.
Take `COc1cc(-n2ccc3ccc(-c4cccc(OC(F)(F)F)c4)cc32)cc(OC)c1OC` [3h, 6-(3-(trifluoromethoxy)phenyl)-1-(3,4,5-trimethoxyphenyl)-1H-indole]: the KD result is recorded as “undetectable binding” and the dissociation constant Kd is more than 200 µM.

The test system of another experiment is B16-F10 cells. The experiment is described as follows: CCK-8 antiproliferative assay, B16-F10. In kind it is cell-based, murine. Conditions: Mus musculus, cell viability (CCK-8), 48 h. The protocol:
as §1, §2, §3
The compound `COc1cc(-n2ccc3ccc(-c4ccc(SC)cc4)cc32)cc(OC)c1OC` [3j, 6-(4-(methylthio)phenyl)-1-(3,4,5-trimethoxyphenyl)-1H-indole] yielded a concentration for half-maximal inhibition (IC50) of more than 100 µM.
On the same count and under the same terms, to `COc1cc(-n2ccc3ccc(-c4ccccc4C(C)C)cc32)cc(OC)c1OC` [3f, 6-(2-isopropylphenyl)-1-(3,4,5-trimethoxyphenyl)-1H-indole] belongs 6.67 ± 0.29 µM; to `COc1cc(-n2ccc3ccc(-c4ccc(C(C)C)cc4)cc32)cc(OC)c1OC` [3k, 6-(4-isopropylphenyl)-1-(3,4,5-trimethoxyphenyl)-1H-indole], more than 100 µM; to `COc1cc(-n2ccc3ccc(-c4cccc(OC(F)(F)F)c4)cc32)cc(OC)c1OC` [3h, 6-(3-(trifluoromethoxy)phenyl)-1-(3,4,5-trimethoxyphenyl)-1H-indole], more than 100 µM.
